The values that follow come from US12516051B1, “Small molecule degraders and fluorescent probes of PXR” (St. Jude Children's Research Hospital, Inc., priority 2024, dated 2026).

SMILES strings stand for the structures. Like-named read-outs stand apart in the source and are kept apart here.

The test system of this data set is SNU-C4 HiBiT-PXR KI cells. Briefly: Cytotoxicity, CellTiter-Glo Luminescent Cell Viability Assay. Type of data set: cell-based. As to the method:
An Echo 655T Acoustic Liquid Handler was used to dispense 75 nL/well of DMSO or PROTAC dilution into white tissue culture-treated 384-well plates. For 24 h cytotoxicity, 25 μL assay media containing 1×10^4 cells was added to each well to match the conditions for the degradation assays. For 72 h cytotoxicity, 25 μL RPMI with 10% FBS containing 2.5×10^3 cells was added to each well to match normal growth conditions. […] After 24 h or 72 h, the CellTiter-Glo Luminescent Cell Viability Assay (Promega, cat. #G7572) and an EnVision microplate reader were used to assess cytotoxicity. DMSO wells with cells served as positive controls, and wells without cells served as negative controls. The percent cell viability for each well was calculated using equation 5,
On the technique in general: Cellular ATP, detected with luciferase, serves as a proxy for viable cell number.

Setting [1] is: read-out: 24 h CC50, Table 3, 24 h treatment.
[2] abbreviates: read-out: 72 h CC50, Table 3, 72 h treatment.
[3] abbreviates: read-out: 24 h CC50, Table 4, 24 h treatment.
[4] abbreviates: read-out: 72 h CC50, Table 4, 72 h treatment.

A word on the CC50: it is the concentration that lowers cell viability or growth by half. Regarding `COc1cc(OCCCCCCOCCOCCOCCCCCC(=O)N[C@H](C(=O)N2C[C@H](O)C[C@H]2C(=O)NCc2ccc(-c3scnc3C)cc2)C(C)(C)C)c(C)cc1-n1nnc(S(=O)(=O)c2ccc(C(C)(C)C)cc2)c1C` [Compound 33, (2S,4R)-1-((S)-2-(tert-Butyl)-22-(4-(4-((4-(tert-butyl)phenyl)sulfonyl)-5-methyl-1H-1,2,3-triazol-1-yl)-5-methoxy-2-methylphenoxy)-4-oxo-10,13,16-trioxa-3-azadocosanoyl)-4-hydroxy-N-(4-(4-methylthiazol-5-yl)benzyl)pyrrolidine-2-carboxamide], the CC50 under setting [1] was > 30 µM and the CC50 under setting [2] was > 30 µM.

In the case of `COc1cc(OCCCCCCOCCOCCOCCOCCOCCOCC(=O)N[C@H](C(=O)N2C[C@H](O)C[C@H]2C(=O)NCc2ccc(-c3scnc3C)cc2)C(C)(C)C)c(C)cc1-n1nnc(S(=O)(=O)c2ccc(C(C)(C)C)cc2)c1C` [Compound 34, (2S,4R)-1-((S)-2-(tert-Butyl)-27-(4-(4-((4-(tert-butyl)phenyl)sulfonyl)-5-methyl-1H-1,2,3-triazol-1-yl)-5-methoxy-2-methylphenoxy)-4-oxo-6,9,12,15,18,21-hexaoxa-3-azaheptacosanoyl)-4-hydroxy-N-(4-(4-methylthiazol-5-yl)benzyl)pyrrolidine-2-carboxamide], the CC50 under setting [1] is > 30 µM and the CC50 under setting [2] is > 30 µM.

Consider `CCCCOc1ccc(C(C)(C)C)cc1NC(=O)c1nnn(-c2cc(C)c(OCCCCCCOCCOCC(=O)N[C@H](C(=O)N3C[C@H](O)C[C@H]3C(=O)NCc3ccc(-c4scnc4C)cc3)C(C)(C)C)cc2OC)c1C` [Compound 35, N-(2-Butoxy-5-(tert-butyl)phenyl)-1-(4-((6-(2-(2-(((S)-1-((2S,4R)-4-hydroxy-2-((4-(4-methylthiazol-5-yl)benzyl)carbamoyl)pyrrolidin-1-yl)-3,3-dimethyl-1-oxobutan-2-yl)amino)-2-oxoethoxy)ethoxy)hexyl)oxy)-2-methoxy-5-methylphenyl)-5-methyl-1H-1,2,3-triazole-4-carboxamide], for which the CC50 under setting [3] is > 30 µM and the CC50 under setting [4] is > 30 µM.

As to `CCC[C@H](CC)Oc1ccc(C(C)(C)C)cc1NC(=O)c1nnn(-c2cc(C)c(OCCCCCCOCCOCC(=O)N[C@H](C(=O)N3C[C@H](O)C[C@H]3C(=O)NCc3ccc(-c4scnc4C)cc3)C(C)(C)C)cc2OC)c1C` [Compound 36], the cytotoxic concentration (CC50) was > 30 µM under setting [3] and > 30 µM under setting [4].

As to `CCC[C@H](CC)Oc1ccc(C(C)(C)C)cc1NC(=O)c1nnn(-c2cc(OC)c(OCCCCCCOCCOCC(=O)N[C@H](C(=O)N3C[C@H](O)C[C@H]3C(=O)NCc3ccc(-c4scnc4C)cc3)C(C)(C)C)cc2OC)c1C` [Compound 37, N-(5-(TERT-BUTYL)-2-(((S)-HEXAN-3-YL)OXY)PHENYL)-1-(4-((6-(2-(2-(((S)-1-((2S,4R)-4-HYDROXY-2-((4-(4 METHYLTHIAZOL-5-YL)BENZYL)CARBAMOYL)PYRROLIDIN-1-YL)-3,3-DIMETHYL-1-OXOBUTAN-2-YL)AMINO)-2 OXOETHOXY)ETHOXY)HEXYL)OXY)-2,5-DIMETHOXYPHENYL)-5-METHYL-1H-1,2,3-TRIAZOLE-4-CARBOXAMIDE], the 50% cytotoxic concentration (CC50) under setting [3] was > 30 µM and the CC50 under setting [4] was > 30 µM.

As for `CCC[C@H](CC)Oc1ccc(C(=O)OC)cc1NC(=O)c1nnn(-c2cc(OC)c(OCCCCCCOCCOCC(=O)N[C@H](C(=O)N3C[C@H](O)C[C@H]3C(=O)NCc3ccc(-c4scnc4C)cc3)C(C)(C)C)cc2OC)c1C` [Compound 38, METHYL 4-(((S)-HEXAN-3-YL)OXY)-3-(1-(4-((6-(2-(2-(((S)-1-((2S,4R)-4-HYDROXY-2-((4-(4-METHYLTHIAZOL-5-YL)BENZYL)CARBAMOYL)PYRROLIDIN-1-YL)-3,3-DIMETHYL-1-OXOBUTAN-2-YL)AMINO)-2-OXOETHOXY)ETHOXY)HEXYL)OXY)-2,5-DIMETHOXYPHENYL)-5-METHYL-1H-1,2,3-TRIAZOLE-4-CARBOXAMIDO)BENZOATE], the CC50 runs as follows: under setting [3], > 30 µM; under setting [4], > 30 µM.
